Measured values taken from the NIST ThermoML archive (doi:10.1016/j.fluid.2016.08.035).
± gives the expanded uncertainty stated by the source.

How the values were obtained:
[1] = molar heat capacity at constant pressure; xn = mol fraction of the nth substance listed; details: 101 kPa, Liquid, DSC, x2 = 0
[2] = xn = mol fraction of the nth substance listed; details: 101 kPa, Liquid, x2 = 0; for viscosity: Falling or rolling sphere viscometry; for speed of sound: Sing-around technique in a fixed-path interferometer; for mass density: Vibrating tube method

| SMILES | molar heat capacity at constant pressure ([1]; 278.15 K) [J/K/mol] | molar heat capacity at constant pressure ([1]; 298.15 K) [J/K/mol] | molar heat capacity at constant pressure ([1]; 318.15 K) [J/K/mol] | molar heat capacity at constant pressure ([1]; 338.15 K) [J/K/mol] | viscosity ([2]; 278.15 K) [mPa·s] | speed of sound ([2]; 278.15 K) [m/s] | mass density ([2]; 278.15 K) [kg/m3] | viscosity ([2]; 298.15 K) [mPa·s] | speed of sound ([2]; 298.15 K) [m/s] | mass density ([2]; 298.15 K) [kg/m3] | viscosity ([2]; 318.15 K) [mPa·s] | speed of sound ([2]; 318.15 K) [m/s] | mass density ([2]; 318.15 K) [kg/m3] | viscosity ([2]; 338.15 K) [mPa·s] | speed of sound ([2]; 338.15 K) [m/s] | mass density ([2]; 338.15 K) [kg/m3] |
| --- | --- | --- | --- | --- | --- | --- | --- | --- | --- | --- | --- | --- | --- | --- | --- | --- |
| CCCCCCCCCC [decane] + CC12CCC(CC1)C(C)(C)O2 | 305.94 ± 12 | 314.4 ± 12 | 323.94 ± 13 | 334.32 ± 13 | 1.19 ± 0.04 | 1315 ± 1.5 | 741.18 ± 0.24 | 0.86 ± 0.04 | 1234.7 ± 1.5 | 726.11 ± 0.24 | 0.66 ± 0.04 | 1156.6 ± 1.5 | 710.89 ± 0.24 | 0.54 ± 0.04 | 1080.5 ± 1.5 | 695.42 ± 0.25 |
| CCCCCC [hexane] + CC12CCC(CC1)C(C)(C)O2 | 188.32 ± 7.3 | 194.96 ± 7.5 | 201.96 ± 7.8 | 208.99 ± 8.1 | 0.39 ± 0.04 | 1169 ± 1.5 | 673.1 ± 0.25 | 0.34 ± 0.04 | 1078.2 ± 1.5 | 655.3 ± 0.25 | 0.3 ± 0.04 | 988.59 ± 1.5 | 636.71 ± 0.25 | 0.26 ± 0.04 | 901.09 ± 1.5 | 617.44 ± 0.26 |
| CCCCCCCC [octane] + CC12CCC(CC1)C(C)(C)O2 | 246.17 ± 9.5 | 253.89 ± 9.8 | 262.16 ± 10 | 270.96 ± 10 | 0.68 ± 0.04 | 1256.7 ± 1.3 | 714.55 ± 0.17 | 0.53 ± 0.04 | 1172.7 ± 1.2 | 698.51 ± 0.17 | 0.43 ± 0.04 | 1090.7 ± 1.2 | 682.19 ± 0.18 | 0.37 ± 0.04 | 1010.7 ± 1.2 | 665.43 ± 0.18 |
